Reference: US20260109715A1, “IMIDAZOPYRIDINE DERIVATIVES WITH BICYCLIC STRUCTURE” (PUBLIC UNIVERSITY CORPORATION YOKOHAMA CITY UNIVERSITY, priority 2022, published 2026)

Experiments:
[1] = tested on: Snhg1 transcript (NMD target gene) in EMT6 murine breast cancer cell line; assay: Measurement of NMD inhibitory activity in cells (increase in Snhg1 transcript, real-time PCR); set-up: species or system mouse; conditions: Mus musculus, 6 hours treatment, concentration giving 1/2 of maximum Snhg1 fold change of positive control, read-out: Test Example 2 Cell-based Snhg1 EC50
Description: The NMD inhibitory activity of a compound of the present invention or a pharmaceutically acceptable salt thereof in cells can be measured, for example, by the method described below. EMT6 murine breast cancer cell line is treated with a test substance in vitro for 6 hours, and the increase in the transcript of Snhg1, a known NMD target gene, is quantified as an indicator of NMD inhibition. Quantification is performed by real-time PCR.
NMD inhibitory activity was measured by treating EMT6 murine breast cancer cell line (ATCC) with a test substance and quantifying the increase in the transcript of Snhg1, an NMD target gene (see F. Usui, et al., Scientific Reports volume 9, Article number: 1279 (2019) for the NMD target gene). That is, EMT6 cells were suspended in Waymouth's medium (Gibco, 15% FBS) and seeded in a 96-well plate at 2×10^4 cells/well. The cells were cultured for 1 day. The next day, serially diluted test substance (DMSO solution, final DMSO concentration: 2%) was added. After culturing for 6 hours, the supernatant was removed, and RNA was extracted using the RNeasy 96 kit (QIAGEN, 74182). After synthesizing cDNA using the High Capacity cDNA Reverse Transcription kit (Applied Biosystems, 4368813), the cDNA was mixed with PrimeTime Gene Expression Master Mix (Integrated DNA Technologies) and various probes, and gene expression was quantified using QuantStudio 6 Flex (Thermo Fisher Scientific Inc.). For the probe for the Snhg1 gene, which is an NMD target, Mm.PT.58.44039547 (FAM)(Integrated DNA Technologies) was used, and for the probe for the Tbp gene, which is an endogenous control, Mm00446973_m1 Tbp (VIC-PL) (Applied Biosystems) was used. The relative quantification of Snhg1 transcripts was calculated by the ΔΔCT method, using Thp as an endogenous control and setting the expression level of Snhg1 in untreated wells to 1.
A known NMD inhibitory compound (pyrimidine derivative Example 11i, Bioorg Med Chem Lett. 2012, 22(21), 6636-41) was used as a positive control drug for NMD inhibition. The NMD inhibitory activity of the test substance-added well was calculated as follows: the maximum fold change in Sngh1 expression in the positive control drug-added well relative to that in the untreated well was defined as the maximum NMD inhibitory activity, and the EC50 (compound concentration showing 50%/activity) of the test substance showing a ½-fold change was calculated by the GROWTH function of Microsoft Excel.

human SMG1 enzyme = human SMG1 enzyme (Homo sapiens, UniProt Q96Q15); assay: Measurement of SMG1 kinase activity (ADP-Glo Kinase Assay); type: biochemical; conditions: purified human SMG1 enzyme 5 nM, Upf1 peptide substrate, ATP 4 μM; qAC50 synonymous with IC50; read-out: Test Example 1 ADP-Glo IC50
Sequence of human SMG1 enzyme (Q96Q15 whole entry): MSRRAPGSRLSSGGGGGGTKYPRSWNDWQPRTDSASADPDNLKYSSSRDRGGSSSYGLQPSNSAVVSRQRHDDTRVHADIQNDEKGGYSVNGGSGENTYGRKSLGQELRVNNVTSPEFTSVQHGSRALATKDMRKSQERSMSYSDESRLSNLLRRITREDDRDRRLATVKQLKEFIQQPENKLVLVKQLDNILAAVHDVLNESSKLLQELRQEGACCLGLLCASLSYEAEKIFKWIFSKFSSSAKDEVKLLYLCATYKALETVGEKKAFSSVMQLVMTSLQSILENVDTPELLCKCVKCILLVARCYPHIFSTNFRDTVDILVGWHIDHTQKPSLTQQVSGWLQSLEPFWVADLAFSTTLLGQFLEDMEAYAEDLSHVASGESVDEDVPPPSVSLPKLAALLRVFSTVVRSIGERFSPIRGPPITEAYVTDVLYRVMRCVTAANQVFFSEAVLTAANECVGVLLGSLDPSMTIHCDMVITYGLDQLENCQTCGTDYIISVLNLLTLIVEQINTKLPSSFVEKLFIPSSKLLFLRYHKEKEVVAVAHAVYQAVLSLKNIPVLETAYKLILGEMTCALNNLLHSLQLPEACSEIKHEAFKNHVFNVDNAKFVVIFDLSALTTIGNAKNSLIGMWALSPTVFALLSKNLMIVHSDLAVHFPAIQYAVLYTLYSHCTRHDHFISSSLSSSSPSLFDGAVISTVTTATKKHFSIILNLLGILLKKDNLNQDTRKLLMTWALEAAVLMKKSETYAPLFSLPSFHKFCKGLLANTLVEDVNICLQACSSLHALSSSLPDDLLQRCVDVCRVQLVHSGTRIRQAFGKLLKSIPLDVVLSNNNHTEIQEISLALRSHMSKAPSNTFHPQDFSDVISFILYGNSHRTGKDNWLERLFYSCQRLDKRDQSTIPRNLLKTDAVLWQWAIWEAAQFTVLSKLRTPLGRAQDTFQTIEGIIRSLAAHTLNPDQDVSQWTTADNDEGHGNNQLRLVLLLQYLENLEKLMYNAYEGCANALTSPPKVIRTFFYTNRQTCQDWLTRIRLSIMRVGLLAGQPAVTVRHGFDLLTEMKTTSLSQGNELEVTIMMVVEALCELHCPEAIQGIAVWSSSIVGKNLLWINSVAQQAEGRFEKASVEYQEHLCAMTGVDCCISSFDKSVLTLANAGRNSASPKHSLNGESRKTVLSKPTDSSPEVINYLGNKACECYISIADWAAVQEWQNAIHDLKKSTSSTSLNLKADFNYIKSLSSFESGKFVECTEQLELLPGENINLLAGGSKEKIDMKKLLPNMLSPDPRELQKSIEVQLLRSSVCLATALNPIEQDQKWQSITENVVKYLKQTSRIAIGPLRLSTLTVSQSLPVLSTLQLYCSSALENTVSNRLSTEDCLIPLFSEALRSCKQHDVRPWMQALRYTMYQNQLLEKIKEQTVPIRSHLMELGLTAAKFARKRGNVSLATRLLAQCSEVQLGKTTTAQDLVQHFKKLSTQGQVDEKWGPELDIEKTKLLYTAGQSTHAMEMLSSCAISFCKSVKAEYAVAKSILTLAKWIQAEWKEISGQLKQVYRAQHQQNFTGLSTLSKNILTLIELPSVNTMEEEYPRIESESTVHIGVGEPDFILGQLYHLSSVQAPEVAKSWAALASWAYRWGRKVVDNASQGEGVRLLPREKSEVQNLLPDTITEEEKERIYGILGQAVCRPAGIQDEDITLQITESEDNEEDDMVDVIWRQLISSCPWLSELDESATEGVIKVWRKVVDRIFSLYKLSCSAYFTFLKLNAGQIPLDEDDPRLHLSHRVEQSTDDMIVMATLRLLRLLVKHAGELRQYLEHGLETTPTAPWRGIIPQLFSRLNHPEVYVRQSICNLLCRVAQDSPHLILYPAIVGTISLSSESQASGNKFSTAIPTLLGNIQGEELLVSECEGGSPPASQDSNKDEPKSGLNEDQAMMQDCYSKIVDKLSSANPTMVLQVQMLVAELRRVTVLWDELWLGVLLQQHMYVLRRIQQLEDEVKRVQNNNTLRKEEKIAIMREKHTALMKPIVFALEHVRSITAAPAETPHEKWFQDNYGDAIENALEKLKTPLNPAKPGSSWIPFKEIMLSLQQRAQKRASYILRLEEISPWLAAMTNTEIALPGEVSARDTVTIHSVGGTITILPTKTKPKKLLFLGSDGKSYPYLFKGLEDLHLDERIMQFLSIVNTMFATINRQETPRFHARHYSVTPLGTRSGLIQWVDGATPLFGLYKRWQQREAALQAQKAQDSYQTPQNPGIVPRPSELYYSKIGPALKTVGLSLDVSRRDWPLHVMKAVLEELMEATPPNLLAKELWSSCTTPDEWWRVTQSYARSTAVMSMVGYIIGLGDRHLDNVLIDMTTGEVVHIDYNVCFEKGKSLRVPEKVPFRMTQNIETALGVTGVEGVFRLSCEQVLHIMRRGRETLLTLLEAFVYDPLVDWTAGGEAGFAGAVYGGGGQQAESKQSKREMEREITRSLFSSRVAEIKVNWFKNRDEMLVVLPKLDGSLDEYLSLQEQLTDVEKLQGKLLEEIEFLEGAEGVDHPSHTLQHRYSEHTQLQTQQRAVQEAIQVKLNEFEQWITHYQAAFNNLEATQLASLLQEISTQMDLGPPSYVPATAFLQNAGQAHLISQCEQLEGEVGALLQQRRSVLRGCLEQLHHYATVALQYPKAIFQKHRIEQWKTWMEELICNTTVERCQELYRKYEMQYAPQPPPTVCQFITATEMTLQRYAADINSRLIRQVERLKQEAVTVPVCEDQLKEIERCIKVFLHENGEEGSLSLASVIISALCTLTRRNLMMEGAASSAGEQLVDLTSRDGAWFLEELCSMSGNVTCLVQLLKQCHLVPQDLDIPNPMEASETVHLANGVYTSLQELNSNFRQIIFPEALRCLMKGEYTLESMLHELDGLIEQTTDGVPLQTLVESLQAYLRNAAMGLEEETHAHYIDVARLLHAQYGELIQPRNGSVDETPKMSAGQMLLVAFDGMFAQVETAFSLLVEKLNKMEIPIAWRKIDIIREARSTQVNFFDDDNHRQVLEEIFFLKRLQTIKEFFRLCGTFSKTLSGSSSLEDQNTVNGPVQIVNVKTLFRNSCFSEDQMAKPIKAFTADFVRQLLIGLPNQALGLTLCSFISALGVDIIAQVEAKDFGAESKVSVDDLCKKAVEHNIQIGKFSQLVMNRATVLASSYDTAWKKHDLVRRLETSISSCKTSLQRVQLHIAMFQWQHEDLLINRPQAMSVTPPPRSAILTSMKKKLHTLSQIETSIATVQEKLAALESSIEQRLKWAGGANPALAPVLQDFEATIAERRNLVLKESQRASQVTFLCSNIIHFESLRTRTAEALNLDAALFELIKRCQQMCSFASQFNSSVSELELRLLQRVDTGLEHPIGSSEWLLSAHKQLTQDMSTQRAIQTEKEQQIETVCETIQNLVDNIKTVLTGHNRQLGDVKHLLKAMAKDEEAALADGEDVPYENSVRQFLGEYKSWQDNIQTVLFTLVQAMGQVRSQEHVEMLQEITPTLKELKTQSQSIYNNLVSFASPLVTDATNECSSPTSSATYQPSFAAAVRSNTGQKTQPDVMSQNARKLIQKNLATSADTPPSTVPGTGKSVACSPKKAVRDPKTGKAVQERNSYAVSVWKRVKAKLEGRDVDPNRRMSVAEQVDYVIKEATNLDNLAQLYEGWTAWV
Description: The SMG1 kinase inhibitory activity of a compound of the present invention or a pharmaceutically acceptable salt thereof can be measured, for example, by the method described below. Using purified human SMG1 protein and a substrate peptide as materials, the kinase activity can be measured by the ADP-Glo Kinase Assay; the SMG1 kinase inhibitory activity of a test substance can be evaluated by comparing the kinase activity in the presence and absence of the test substance.
The reaction was performed by the ADP-Glo Kinase Assay (Promega, catalog number V9102) using a 384-well plate under the conditions of an assay buffer (100 mM HEPES (pH 7.5), 50 mM NaCl, 10 mM MnCl2, 0.01% BSA, 0.1% Tween 20.5 mM TCEP). After incubating a test substance (DMSO solution; final DMSO concentration: 1%) and purified human SMG1 enzyme (Genes Dev. 2011 Jan. 15; 25(2): 153-164, produced by Daiichi Sankyo RD Novare Co., Ltd.; final concentration: 5 nM) at room temperature for 15 minutes, a substrate, Upf1 peptide (Biotin-(PEG8) QIDVALSQDSTYQG, produced by Eurofins genomics; final concentration: 8 μg/mL), and ATP (Promega: 4 μM) were added, and the mixture was reacted at room temperature for 60 minutes (see Non-Patent Literature R. Melero, et al., Structure Volume 22, Issue 8, 5 Aug. 2014, Pages 1105-1119 for the Upf1 peptide). ADP-Glo Reagent was added, and the mixture was reacted at room temperature for 40 minutes. Kinase Detection Reagent was added, and the mixture was reacted for another 30 minutes. The luminescence intensity was measured using EnVision (PerkinElmer).
The activity value (%) of the test substance-added well was calculated from the following formula, where the average luminescence intensity of the DMSO-added well was 0% and the average luminescence intensity of the SMG1 enzyme-free well was −100%.
The qAC50 (compound concentration showing 50% inhibition, synonymous with IC50) of the test substance was calculated using the activity value (%) at each concentration by Smart fit of Screener (Genedata). Smart fit is a general 4-parameter logistic regression model.

EC50 [1] [nM]	IC50 (human SMG1 enzyme) [nM]	SMILES
81	1.2	Cc1c(-c2nccc3[nH]c(=O)c(-c4nc5cnc(Cl)cc5[nH]4)cc23)c(C2CC2)nn1CC(F)F [Example 93, 3-(6-chloro-1H-imidazo[4,5-c]pyridin-2-yl)-5-[3-cyclopropyl-1-(2,2-difluoroethyl)-5-methyl-1H-pyrazol-4-yl]-1,6-naphthyridin-2(1H)-one]
60	1.5	Cc1c(-c2nccc3[nH]c(=O)c(-c4nc5cnc(Cl)cc5[nH]4)cc23)c(C(F)F)nn1C(C)C [Example 94, 3-(6-chloro-1H-imidazo[4,5-c]pyridin-2-yl)-5-[3-(difluoromethyl)-5-methyl-1-(propan-2-yl)-1H-pyrazol-4-yl]-1,6-naphthyridin-2(1H)-one]
82	1	O=c1[nH]c2ccnc(-c3cnn4c3OCCC4)c2cc1-c1nc2cnc(Cl)cc2[nH]1 [Example 95, 3-(6-chloro-1H-imidazo[4,5-c]pyridin-2-yl)-5-(6,7-dihydro-5H-pyrazolo[5,1-b][1,3]oxazin-3-yl)-1,6-naphthyridin-2(1H)-one]
76	2.8	O=C1Nc2ccnc(-c3ccccc3Cl)c2CN1c1nc2cnc(Cl)cc2[nH]1 [Example 102, 3-(6-chloro-1H-imidazo[4,5-c]pyridin-2-yl)-5-(2-chlorophenyl)-3,4-dihydropyrido[4,3-d]pyrimidin-2(1H)-one]
71	3.3	COc1ccccc1-c1nccc2c1CN(c1nc3cnc(Cl)cc3[nH]1)C(=O)N2 [Example 103, 3-(6-chloro-1H-imidazo[4,5-c]pyridin-2-yl)-5-(2-methoxyphenyl)-3,4-dihydropyrido[4,3-d]pyrimidin-2(1H)-one]
75	0.79	O=c1[nH]c2ccnc(C3=CCCN(S(=O)(=O)C4CC4)C3)c2cc1-c1nc2cnc(Cl)cc2[nH]1 [Example 104, 3-(6-chloro-1H-imidazo[4,5-c]pyridin-2-yl)-5-[1-(cyclopropylsulfonyl)-1,2,5,6-tetrahydropyridin-3-yl]-1,6-naphthyridin-2(1H)-one]
59	1.5	O=C(C1CC1)N1CCC=C(c2nccc3[nH]c(=O)c(-c4nc5cnc(Cl)cc5[nH]4)cc23)C1 [Example 105, 3-(6-chloro-1H-imidazo[4,5-c]pyridin-2-yl)-5-[1-(cyclopropylcarbonyl)-1,2,5,6-tetrahydropyridin-3-yl]-1,6-naphthyridin-2(1H)-one]
87	2.5	O=c1[nH]c2ccnc(C3CCCCN(S(=O)(=O)c4ccccc4)C3)c2cc1-c1nc2cnc(Cl)cc2[nH]1 (stereo not shown) [Example 106, 3-(6-chloro-1H-imidazo[4,5-c]pyridin-2-yl)-5-[1-(phenylsulfonyl)azepan-3-yl]-1,6-naphthyridin-2(1H)-one]
30	0.64	CN1CCCN(C)c2nc(Cl)cc3[nH]c(nc23)-c2cc3c(nccc3[nH]c2=O)-c2ccc(cc2F)C1=O [Example 107, 7-Chloro-18-fluoro-10,14-dimethyl-3,8,10,14,21,25,31-heptaazahexacyclo[18.6.2.2^16,19.1^2,5.0^4,9.0^24,28]hentriacont-1(27),2,4,6,8,16,18,20(28),21,23,29-undecaen-15,26-dione]
2	1	Cc1c2cccc1-c1nccc3[nH]c(=O)c(cc13)-c1nc3c(nc(Cl)cc3[nH]1)N(C)CCCN(C)C2=O [Example 108, 7-chloro-10,14,30-trimethyl-3,8,10,14,22,26,31-heptaazahexacyclo[19.6.2.1^2,5.1^16,20.0^4,9.0^25,29]hentriacont-1(28),2,4,6,8,16(30),17,19,21(29),22,24-undecaen-15,27-dione]
165	2.3	Cc1cc2ccc1-c1nccc3[nH]c(=O)c(cc13)-c1nc3c(nc(Cl)cc3[nH]1)N(C)CCC(=O)N(C)C2 [Example 109, 7-chloro-10,14,18-trimethyl-3,8,10,14,21,25,31-heptaazahexacyclo[18.6.2.2^16,19.1^2,5.0^4,9.0^24,28]hentriacont-1(27),2,4,6,8,16,18,20(28),21,23,29-undecaen-13,26-dione]
1.1	1.3	Cc1c2cccc1-c1nccc3[nH]c(=O)c(cc13)-c1nc3c(nc(Cl)cc3[nH]1)N1CCCN(CC1)C(=O)CO2 [Example 110, 7-chloro-32-methyl-17-oxa-3,8,10,14,24,28,35-heptaazaheptacyclo[21.6.2.2^10,14.1^2,5.1^18,22.0^4,9.0^27,31]pentatriacont-1(30),2,4,6,8,18(32),19,21,23(31),24,26-undecaen-15,29-dione]
8.4	1.6	Cc1c2cccc1-c1nccc3[nH]c(=O)c(cc13)-c1nc3c(nc(Cl)cc3[nH]1)NCC(C)(C)NC(=O)CO2 [Example 111, 7-chloro-12,12,31-trimethyl-16-oxa-3,8,10,13,23,27,32-heptaazahexacyclo[20.6.2.1^2,5.1^17,21.0^4,9.0^26,30]dotriacont-1(29),2,4,6,8,17(31),18,20,22(30),23,25-undecaen-14,28-dione]
510	1.3	O=C1CS(=O)(=O)c2cccc(c2)-c2nccc3[nH]c(=O)c(cc23)-c2nc3c(nc(Cl)cc3[nH]2)N2CCCN1CC2 [Example 112, 7-chloro-17-thia-3,8,10,14,24,28,35-heptaazaheptacyclo[21.6.2.2^10,14.1^2,5.1^18,22.0^4,9.0^27,31]pentatriacont-1(30)2,4,6,8,18(32),19,21,23(31),24,26-undecaen-15,29-dione17,17-dioxide]
8.3	0.38	Cc1nn2c(C)c1-c1nccc3[nH]c(=O)c(cc13)-c1nc3c(nc(Cl)cc3[nH]1)N(C)CCCCN(C)C(=O)C2 [Example 113, 7-chloro-10,15,20,31-tetramethyl-3,8,10,15,18,19,23,27,32-nonaazahexacyclo[20.6.2.1^2,5.1^18,21.0^4,9 .0^26,30]dotriacont-1(29),2,4,6,8,19,21(31),22(30),23,25-decaen-16,28-dione]
3.2	1.1	Cc1nn2c(C)c1-c1nccc3[nH]c(=O)c(cc13)-c1nc3c(nc(Cl)cc3[nH]1)N(C)CCCN(C)C(=O)C2C (stereo not shown) [Example 114, 7-chloro-10,14,16,19,30-pentamethyl-3,8,10,14,17,18,22,26,31-nonaazahexacyclo[19.6.2.1^2,5.1^17,20.0^4,9.0^25,29]hentriacont-1(28),2,4,6,8,18,20(30),21(29),22,24-decaen-15,27-dione]
58	0.64	Cc1nn2c(C)c1-c1nccc3[nH]c(=O)c(cc13)-c1nc3c(nc(Cl)cc3[nH]1)NCC(C)(C)CNC(=O)C2 [Example 115, 7-chloro-12,12,19,30-tetramethyl-3,8,10,14,17,18,22,26,31-nonaazahexacyclo[19.6.2.1^2,5.1^17,20.0^4,9.0^25,29]hentriacont-1(28),2,4,6,8,18,20(30),21(29),22,24-decaen-15,27-dione]
